From ChEMBL document CHEMBL4184120, “Target ROS to induce apoptosis and cell cycle arrest by 5,7-dimethoxy-1,4-naphthoquinone derivative” (Bioorg Med Chem Lett, 2018)
The source made the active and inactive calls. The rule behind the calls is not given here.

How the values were obtained:
A549 = assay: Antiproliferative activity against human A549 cells after 48 hrs by MTT assay; format: functional, cell-based; conditions: A549, 48 h
NCI-H460 = assay: Antiproliferative activity against human NCI-H460 cells after 48 by hrs MTT assay; format: functional, cell-based
HL-60 [1] = assay: Antiproliferative activity against human HL60 cells after 48 hrs by MTT assay; format: functional, cell-based; conditions: HL-60, 48 h
HeLa = assay: Antiproliferative activity against human HeLa cells after 48 hrs by MTT assay; format: functional, cell-based
HepG2 = assay: Antiproliferative activity against human HepG2 cells after 48 hrs by MTT assay; format: functional, cell-based; conditions: HepG2, 48 h
[2] = Selectivity index, ratio of IC50 for human WI38 cells to IC50 for human HL60 cells; format: toxicity; conditions: WI38 cells and HL60 cells, read-out: Ratio IC50
K562 = assay: Antiproliferative activity against human K562 cells after 48 hrs by MTT assay; format: functional, cell-based; conditions: K562, 48 h
WI-38 = assay: Antiproliferative activity against human WI38 cells after 48 hrs by MTT assay; format: cell-based; conditions: WI-38, 48 h
HL-60 [3] = assay: Cell cycle arrest in human HL60 cells assessed as accumulation at S phase at 2 uM after 48 hrs by propidium iodide staining based assay (reference value: 46.44%); format: functional
[4] = Redox potential of the compound in pH 7.4 PBS buffer assessed as half wave potential at 0.4 mM by cyclic voltametry; format: physicochemical; conditions: pH 7.4, 400 µM
HL-60 [5] = assay: Cell cycle arrest in human HL60 cells assessed as accumulation at G0/G1 phase at 4 uM after 48 hrs by propidium iodide staining based assay (reference value: 50.88%); format: functional
HL-60 [6] = assay: Cell cycle arrest in human HL60 cells assessed as accumulation at G2/M phase at 4 uM after 48 hrs by propidium iodide staining based assay (reference value: 2.68%); format: functional
HL-60 [7] = assay: Induction of apoptosis in human HL60 cells assessed as condensed nuclei formation at 4 uM preincubated for 1 hr with antioxidant NAC measured after 24 hrs by Hoechst-33342 staining-based fluorescence microscopic analysis; format: functional, cell-based
HL-60 [8] = assay: Cell cycle arrest in human HL60 cells assessed as accumulation at S phase at 4 uM incubated for 48 hrs starting from 1 hr post antioxidant NAC addition by propidium iodide staining based assay (reference value: 46.44%); format: functional
[9] = Redox potential of the compound in pH 7.4 PBS buffer assessed as reduction potential at 0.4 mM by cyclic voltametry; format: physicochemical; conditions: pH 7.4, 400 µM
HL-60 [10] = assay: Induction of apoptosis in human HL60 cells assessed as necrotic cells after 48 hrs by Annexin V-FITC/propidium iodide staining based flow cytometry; format: functional, cell-based
HL-60 [11] = assay: Induction of apoptosis in human HL60 cells assessed as late apoptotic cells at 4 uM incubated for 48 hrs starting from 1 hr post antioxidant NAC addition by Annexin V-FITC/propidium iodide staining based flow cytometry (reference value: 1.23%); format: functional
[12] = Redox potential of the compound in pH 7.4 PBS buffer assessed as oxidation potential at 0.4 mM by cyclic voltametry; format: physicochemical; conditions: pH 7.4, 400 µM
HL-60 [13] = assay: Induction of apoptosis in human HL60 cells assessed as nuclear fragmentation after 24 hrs by Hoechst-33342 staining-based fluorescence microscopic analysis; format: functional, cell-based
HL-60 [14] = assay: Induction of apoptosis in human HL60 cells assessed as late apoptotic cells at 4 uM after 48 hrs by Annexin V-FITC/propidium iodide staining based flow cytometry (reference value: 1.23%); format: functional
HL-60 [15] = assay: Cell cycle arrest in human HL60 cells assessed as accumulation at S phase at 1 uM after 48 hrs by propidium iodide staining based assay (reference value: 46.44%); format: functional
HL-60 [16] = assay: Cell cycle arrest in human HL60 cells assessed as accumulation at G2/M phase at 4 uM incubated for 48 hrs starting from 1 hr post antioxidant NAC addition by propidium iodide staining based assay (reference value: 2.68%); format: functional
[17] = Selectivity ratio of IC50 for human K562 cells to IC50 for human HL60 cells; format: functional
HL-60 [18] = assay: Cell cycle arrest in human HL60 cells assessed as accumulation at G0/G1 phase at 4 uM incubated for 48 hrs starting from 1 hr post antioxidant NAC addition by propidium iodide staining based assay (reference value: 50.88%); format: functional
HL-60 [19] = assay: Cell cycle arrest in human HL60 cells assessed as accumulation at G2/M phase at 2 uM after 48 hrs by propidium iodide staining based assay (reference value: 2.68%); format: functional
HL-60 [20] = assay: Cell cycle arrest in human HL60 cells assessed as accumulation at S phase at 4 uM after 48 hrs by propidium iodide staining based assay (reference value: 46.44%); format: functional
HL-60 [21] = assay: Induction of apoptosis in human HL60 cells assessed as early apoptotic cells at 1 uM after 48 hrs by Annexin V-FITC/propidium iodide staining based flow cytometry (reference value: 3.13%); format: functional
HL-60 [22] = assay: Induction of ROS generation in human HL60 cells after 6 hrs by DCFH-DA staining-based fluorescence microscopic analysis; format: functional, cell-based
HL-60 [23] = assay: Induction of apoptosis in human HL60 cells assessed as late apoptotic cells at 1 uM after 48 hrs by Annexin V-FITC/propidium iodide staining based flow cytometry (reference value: 1.23%); format: functional
HL-60 [24] = assay: Cell cycle arrest in human HL60 cells assessed as accumulation at G0/G1 phase at 1 uM after 48 hrs by propidium iodide staining based assay (reference value: 50.88%); format: functional
HL-60 [25] = assay: Cell cycle arrest in human HL60 cells assessed as accumulation at G0/G1 phase at 2 uM after 48 hrs by propidium iodide staining based assay (reference value: 50.88%); format: functional
HL-60 [26] = assay: Induction of apoptosis in human HL60 cells assessed as early apoptotic cells at 4 uM after 48 hrs by Annexin V-FITC/propidium iodide staining based flow cytometry (reference value: 3.13%); format: functional
HL-60 [27] = assay: Induction of apoptosis in human HL60 cells assessed as nuclear fragmentation at 4 uM preincubated for 1 hr with antioxidant NAC measured after 24 hrs by Hoechst-33342 staining-based fluorescence microscopic analysis; format: functional, cell-based
HL-60 [28] = assay: Induction of apoptosis in human HL60 cells assessed as early apoptotic cells after 48 hrs by Annexin V-FITC/propidium iodide staining based flow cytometry; format: functional, cell-based
HL-60 [29] = assay: Induction of apoptosis in human HL60 cells assessed as late apoptotic cells at 2 uM after 48 hrs by Annexin V-FITC/propidium iodide staining based flow cytometry (reference value: 1.23%); format: functional
HL-60 [30] = assay: Induction of apoptosis in human HL60 cells assessed as condensed nuclei formation after 24 hrs by Hoechst-33342 staining-based fluorescence microscopic analysis; format: functional, cell-based
HL-60 [31] = assay: Induction of apoptosis in human HL60 cells assessed as late apoptotic cells after 48 hrs by Annexin V-FITC/propidium iodide staining based flow cytometry; format: functional, cell-based
HL-60 [32] = assay: Cell cycle arrest in human HL60 cells assessed as accumulation at G2/M phase at 1 uM after 48 hrs by propidium iodide staining based assay (reference value: 2.68%); format: functional
HL-60 [33] = assay: Induction of ROS generation in human HL60 cells at 4 uM incubated for 6 hrs starting from 1 hr post antioxidant NAC addition by DCFH-DA staining-based fluorescence microscopic analysis; format: functional, cell-based
HL-60 [34] = assay: Induction of apoptosis in human HL60 cells assessed as early apoptotic cells at 2 uM after 48 hrs by Annexin V-FITC/propidium iodide staining based flow cytometry (reference value: 3.13%); format: functional
HL-60 [35] = assay: Induction of apoptosis in human HL60 cells assessed as early apoptotic cells at 4 uM incubated for 48 hrs starting from 1 hr post antioxidant NAC addition by Annexin V-FITC/propidium iodide staining based flow cytometry (reference value: 3.13%); format: functional

Structure (SMILES): COC1=C(CCC2CCCCC2)C(=O)c2c(OC)cc(OC)cc2C1=O
- IC50 (A549): > 100 µM
- IC50 (NCI-H460): 43.1 µM
- IC50 (HL-60 [1]): 55.9 µM
- IC50 (HeLa): 70.2 µM
- IC50 (HepG2): 37.4 µM

Structure (SMILES): COc1cc(OC)c2c(c1)C(=O)C(Cl)=C(CCC1CCCCC1)C2=O
- IC50 (A549): 63 µM
- IC50 (NCI-H460): 61 µM
- IC50 (HL-60 [1]): 9.2 µM
- IC50 (HeLa): 21.2 µM
- IC50 (HepG2): 41.4 µM
- selectivity ratio [2]: 3.7
- IC50 (K562): 29.9 µM
- IC50 (WI-38): 34.2 µM

Structure (SMILES): COc1cc(OC)c2c(c1)C(=O)C(O)=C(CCC1CCCCC1)C2=O
- IC50 (A549): 78.5 µM
- IC50 (NCI-H460): 86.2 µM
- IC50 (HL-60 [1]): 95.8 µM
- IC50 (HeLa): 79.4 µM
- IC50 (HepG2): 49.9 µM

Structure (SMILES): COc1ccc(CCC2=C(O)C(=O)c3cc(OC)cc(OC)c3C2=O)cc1
- IC50 (A549): 82.4 µM
- IC50 (NCI-H460): 97.5 µM
- IC50 (HL-60 [1]): 93.1 µM
- IC50 (HeLa): 72.8 µM
- IC50 (HepG2): 60.7 µM

Structure (SMILES): CCCCCCCCC1=C(O)C(=O)c2cc(OC)cc(OC)c2C1=O
- IC50 (A549): > 100 µM
- IC50 (NCI-H460): > 100 µM
- IC50 (HL-60 [1]): > 100 µM
- IC50 (HeLa): > 100 µM
- IC50 (HepG2): > 100 µM

Structure (SMILES): CCCCCCC1=C(O)C(=O)c2cc(OC)cc(OC)c2C1=O
- IC50 (A549): > 100 µM
- IC50 (NCI-H460): > 100 µM
- IC50 (HL-60 [1]): > 100 µM
- IC50 (HeLa): > 100 µM
- IC50 (HepG2): 90.4 µM

Structure (SMILES): CCCCC1=C(Cl)C(=O)c2cc(OC)cc(OC)c2C1=O
- Activity (HL-60 [3]): 47.42%
- IC50 (A549): 24.1 µM
- IC50 (NCI-H460): 38.7 µM
- Activity [4]: -0.202 V
- Activity (HL-60 [5]): 18.18%
- Activity (HL-60 [6]): 31.93%
- Activity (HL-60 [7]): Active
- Activity (HL-60 [8]): 43.67%
- Activity [9]: -0.235 V
- IC50 (HL-60 [1]): 3.8 µM
- Activity (HL-60 [10]): Dose-dependent effect
- Activity (HL-60 [11]): 6.78%
- Activity [12]: -0.169 V
- Activity (HL-60 [13]): Dose-dependent effect
- Activity (HL-60 [14]): 40.4%
- Activity (HL-60 [15]): 51.13%
- Activity (HL-60 [16]): 7.8%
- Ratio IC50 [17]: 8
- Activity (HL-60 [18]): 48.52%
- Activity (HL-60 [19]): 17.69%
- Activity (HL-60 [20]): 49.89%
- Activity (HL-60 [21]): 4.48%
- Activity (HL-60 [22]): Dose-dependent effect
- Activity (HL-60 [23]): 14.9%
- IC50 (HeLa): 22.3 µM
- Activity (HL-60 [24]): 35.72%
- Activity (HL-60 [25]): 34.89%
- Activity (HL-60 [26]): 26.6%
- IC50 (HepG2): 23.1 µM
- Activity (HL-60 [27]): Active
- Activity (HL-60 [28]): Dose-dependent effect
- Activity (HL-60 [29]): 20.9%
- Activity (HL-60 [30]): Dose-dependent effect
- Activity (HL-60 [31]): Dose-dependent effect
- Activity (HL-60 [32]): 13.15%
- Activity (HL-60 [33]): inactive
- selectivity ratio [2]: 10.7
- Activity (HL-60 [34]): 7.35%
- IC50 (K562): 32.3 µM
- IC50 (WI-38): 40.7 µM
- Activity (HL-60 [35]): 2.08%

Structure (SMILES): COc1cc(OC)c2c(c1)C(=O)C(O)=C(CCc1ccccc1)C2=O
- IC50 (A549): > 100 µM
- IC50 (NCI-H460): > 100 µM
- IC50 (HL-60 [1]): 96.1 µM
- IC50 (HeLa): > 100 µM
- IC50 (HepG2): 95.7 µM

Structure (SMILES): COc1ccc(CCC2=C(Cl)C(=O)c3cc(OC)cc(OC)c3C2=O)cc1
- IC50 (A549): 83.1 µM
- IC50 (NCI-H460): > 100 µM
- IC50 (HL-60 [1]): 15.3 µM
- IC50 (HeLa): 29.3 µM
- IC50 (HepG2): 37.1 µM
- selectivity ratio [2]: 1.8
- IC50 (K562): 19.2 µM
- IC50 (WI-38): 26.8 µM

Structure (SMILES): COc1cc(OC)c2c(c1)C(=O)C(O)=C(C)C2=O
- IC50 (A549): > 100 µM
- IC50 (NCI-H460): > 100 µM
- IC50 (HL-60 [1]): > 100 µM
- IC50 (HeLa): 90.2 µM
- IC50 (HepG2): > 100 µM

Structure (SMILES): O=c1[nH]cc(F)c(=O)[nH]1 [FLUOROURACIL]
- IC50 (HL-60 [1]): 67.2 µM
- IC50 (HeLa): 30.2 µM
- IC50 (HepG2): 36.6 µM
